From the NIST ThermoML archive (doi:10.1016/j.jct.2005.10.007)

Assay: mn = molality of the nth substance listed, in mol/kg
Details: 350 kPa, Liquid, Extra sensitive DSC

C[C@H](N)C(=O)O [(S)-2-aminopropanoic acid] + O
apparent molar heat capacity [J/K/mol]
Details | m1 = 0.0152 | m1 = 0.0299 | m1 = 0.05 | m1 = 0.08 | m1 = 0.1247 | m1 = 0.2493 | m1 = 0.5149 | m1 = 1.002
338.15 K | 184 | 194 | 168.8 | 172.4 | 175.4 | 178.3 | 182.3 | 176.9
343.15 K | 187 | 196 | 170.7 | 174.2 | 177.3 | 180.1 | 183.9 | 178.6
348.15 K | 188 | 197 | 172.4 | 175.9 | 178.9 | 181.7 | 185.3 | 180.1
353.15 K | 190 | 198 | 174 | 177.4 | 180.5 | 183.1 | 186.6 | 181.4
358.15 K | 191 | 199 | 175.2 | 178.5 | 181.6 | 184.3 | 187.6 | 182.5
363.15 K | 192 | 199 | 176.1 | 179.4 | 182.5 | 185.1 | 188.4 | 183.5
368.15 K | 192 | 200 | 176.6 | 180.1 | 183.3 | 185.8 | 189 | 184.2
373.15 K | 192 | 200 | 177.1 | 180.5 | 183.7 | 186.2 | 189.4 | 184.8
378.15 K | 192 | 200 | 177.2 | 180.6 | 183.8 | 186.4 | 189.5 | 185.1
383.15 K | 192 | 200 | 177.1 | 180.7 | 183.9 | 186.4 | 189.6 | 185.4
388.15 K | 192 | 199 | 176.8 | 180.3 | 183.6 | 186.2 | 189.4 | 185.5
393.15 K | 190 | 200 | 176.6 | 179.8 | 183.1 | 185.8 | 189.2 | 185.5
